Test results published in patent US20200157135A1, “SIDE-CHAIN MODIFIED ERGOSTEROL AND STIGMASTEROL DERIVATIVES AS LIVER X RECEPTOR MODULATORS” (Ospedale San Raffaele srl, priority 2017, published 2020).
Where two headings read alike, the source gives them in different places.

Columns and labels:
hLXRα = target: T1, hLXRα (Homo sapiens, UniProt Q13133); test: luciferase assay with GAL-4 chimeric hLXRα receptor in human embryonic kidney 293 cells; type: cell-based; conditions: for Emax: HEK293, 24 h, read-out: LXRα Efficacy (%) ± SD; for LXR isoform selectivity profile: LXRα versus LXRβ, GAL4 luciferase assays
T1 sequence (Q13133 209-447 limits assumed): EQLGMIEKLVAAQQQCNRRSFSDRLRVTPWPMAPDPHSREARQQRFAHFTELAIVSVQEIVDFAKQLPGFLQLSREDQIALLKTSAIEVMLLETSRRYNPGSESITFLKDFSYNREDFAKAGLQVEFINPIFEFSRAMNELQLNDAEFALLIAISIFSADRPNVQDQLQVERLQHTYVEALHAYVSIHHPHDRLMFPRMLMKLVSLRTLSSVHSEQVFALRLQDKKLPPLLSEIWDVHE
Description: (§1) All the synthesized compounds were first tested for their ability to activate LXRs by using luciferase assays with GAL-4 chimeric receptors. These were performed by co-transfecting plasmids encoding hLXRα- and β-binding domains fused to GAL-4, with the respective responsive element conjugated with the luciferase reporter gene into the human embryonic kidney 293 cells.
(§2) Cell Culture and Co-transfection Assays. Human embryonic Kidney 293 cells (American Type Culture Collection) were cultured in Dulbecco's Modified Eagle's medium containing 10% of fetal bovine serum at 37° C. in humidified atmosphere of 5% CO2. HEK293 cells (4×10^4 cells per well) were transiently transfected in 48 well plate with the reporter plasmids pMH100X4-TK-luc (100 ng/well), Renilla (22 ng/well) together with 100 ng/well of pCMX-Gal4-RXR, pCMX-Gal4-PPAR-γ, pCMX-Gal4-PXR, pFA-CMV-FXR pCMX-Gal4-LXR-α or pCMX-Gal4-LXR-β plasmids using X-tremeGENE 9 DNA Transfection Reagent (Roche). Six hours after transfection, the cells were treated with the appropriate compound for 24 hours. Luciferase activities were analyzed by luciferase Dual Reporter Assay Systems (Promega) according to the manufacturer's protocol. GAL4-LXRs, GAL4-PPAR-γ, GAL4-RXR and TK-MHC100-luc plasmids were described in Villablanca et al.49 GAL4-PXR was a kind gift of Dr. Enrique Sainz (The Scripps Research Institute, La Jolla, USA). GAL4-FXR was a kind gift of Dr. Daniel Merk (Goethe-University Frankfurt am Main). The results obtained by luciferase assays and reported in Table 1 are from three to five independent experiments.
(§3) Statistical analysis. Data are expressed as mean±SEM and were analyzed for significance by ANOVA with Dunnet's multiple comparison tests. The analysis was performed with Prism software. Data in Table 1 are expressed as EC50±SD. In particular, the standard deviations were obtained by calculating the mean of the EC50 of each experiment (three to five independent experiments). The efficacy (%) of the compounds was calculated as the percentage of the compound effect, in terms of LXRα or β activation, versus 8 μM of 22R—HC±SD. The analyses were performed with Prism software.

hLXRβ = target: T2, hLXRβ (Homo sapiens, UniProt P55055); test: luciferase assay with GAL-4 chimeric hLXRβ receptor in human embryonic kidney 293 cells; type: cell-based; conditions: for Emax: HEK293, 24 h; for beta/alfa efficacy ratio: LXRβ efficacy over LXRα efficacy
T2 sequence (P55055 222-460 limits assumed): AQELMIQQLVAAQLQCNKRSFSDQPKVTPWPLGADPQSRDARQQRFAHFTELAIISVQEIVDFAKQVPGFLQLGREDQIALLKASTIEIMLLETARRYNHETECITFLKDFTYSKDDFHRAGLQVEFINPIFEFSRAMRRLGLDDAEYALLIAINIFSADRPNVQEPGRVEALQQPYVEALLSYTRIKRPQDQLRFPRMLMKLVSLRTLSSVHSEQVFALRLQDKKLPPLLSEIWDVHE
Description: as §1, §2, §3

hPXR = test: luciferase assay GAL4-hPXR in human embryonic kidney 293 cells; type: cell-based; conditions: compounds at 10 μM
Description: Human embryonic kidney 293 cells were co-transfected with GAL4-hRXR (A), GAL4-hPPARγ (B), GAL4-hPXR (C) and GAL4-hFXR (D) expression plasmids together with GAL4 responsive element pMHC100X4-TK-luc and Renilla plasmids. Cells were incubated with vehicle (DMSO), PFMs at the concentration of 10 μM, and the nuclear receptor specific ligands 9cis retinoic acid (100 nM) (A), Rosiglitazone (RSG 100 nM) (B), T0901317 (100 nM) (C) and GW4064 (100 nM) (D) for six hours. The values represent mean±S.D. RLA, relative luciferase activity.
The selectivity of our compounds within the nuclear receptor superfamily was also evaluated by luciferase assays using GAL4-RXR, -PPARγ, -PXR and -FXR plasmids.
as §2

ABCA1 = test: qPCR of ABCA1 expression in PMA-differentiated U937 cells; type: cell-based, human; conditions: U937 differentiated with PMA 72 h; 10 μM, 6 hours
Description: (§4) U937 cells differentiated with PMA for 72 hours were treated with T0901317 (10 μM), 22R—HC (3) or with the tested compound (10 μM). […] (n=3/group). *p<0.05, **p<0.01, ***p<0.001.
(§5) LXR agonists induce the expression of target genes, which are involved in cholesterol homeostasis, particularly in the reverse cholesterol transport pathway.43 Indeed, LXR agonists induce the expression of ABCA1 both in macrophages and in many tissues of the periphery such as the intestine.44 Moreover, ABCA1 regulates cholesterol efflux to APOAI acceptors.45 In the liver, LXR activation promotes the biosynthesis of fatty acids, a process also termed as de novo lipogenesis by inducing the expression of the master regulator of hepatic lipogenesis sterol-regulatory element-binding protein 1C (SREBP-1c), as well as several downstream genes in the SREBP-1c pathway, including steroyl CoA desaturase 1 (SCD1) and fatty acid synthase (FASN).43 Therefore, it was investigated, by quantitative PCR (qPCR), the expression of ABCA1, SREBP1c, FASN, and SCD1, by using RNA from monocytic U937 cells (FIG. 3) and from hepatic HepG2 cells (FIG. 4) stimulated with our compounds, the non-steroidal agonist T0901317 or the endogenous ligand 22R—HC (3) as positive controls. […] Then, the induction of genes involved in the lipogenesis using the hepatic cell line HepG2. 43,22 was evaluated. […] Over the time, indeed, substantial efforts have been dedicated to the identification of LXR ligands able to turning on ABC transporter genes, without affecting lipogenic genes levels. This task is still one of the major challenge to the discovery of a clinically useful LXR modulator for atherosclerosis.
(§6) Quantitative Real-Time-PCR. U937 cell line was differentiated in foam macrophages with phorbol 12-myristate 13-acetate (PMA) 10 ng/ml (Sigma) for 72 hours at 37° C. in […] at the concentration of 3×10^6 cells in 10 ml RPMI 10% FBS. At day 3 nuclear receptor ligands were added for 6 hours. HepG2 cells were treated with the ligands as described by Quinet et al.22 Total RNA was purified by TRIZOL (Invitrogen, Carlsbad, Calif., USA). Reverse transcription was performed incubating 2 μg of total RNA 1 hour at 42° C. with MLV-reverse transcriptase (Promega). Quantitative PCR was performed using Sybr Green Master Mix (Applied Biosystems) and real-time PCR (Viia 7 Real Time PCR System, Applied Biosystems). All PCR reactions were done in triplicate. The comparative Ct method was used to quantify transcripts that were normalized for human GAPDH. the following primer pairs were used: […]

SREBP1c = test: qPCR of SREBP1c expression in PMA-differentiated U937 cells; type: cell-based, human; conditions: U937 differentiated with PMA 72 h; 10 μM, 6 hours
Description: as §4, §5, §6

SCD1 = test: qPCR of SCD1 expression in PMA-differentiated U937 cells; type: cell-based, human; conditions: U937 differentiated with PMA 72 h; 10 μM, 6 hours
Description: as §4, §5, §6

MCP-1/CCL2 = test: qPCR of CCL2 expression in differentiated U937 cells treated with LPS; type: cell-based, human; conditions: differentiated U937, 6 hours, 10 μM in combination with LPS (100 ng/ml)
Description: (§7) U937 cells differentiated with PMA for 72 hours were treated with LPS (100 ng/ml) in combination with T0901317 (10 μM) or with the title compounds (10 μM). […] (n=3/group). *p<0.05, **p<0.01, ***p<0.001.
as §6

TNFα = test: qPCR of TNFα expression in differentiated U937 cells treated with LPS; type: cell-based, human; conditions: differentiated U937, 6 hours, 10 μM in combination with LPS (100 ng/ml)
Description: as §7, §6

[1] = read-out: LXRβ Efficacy (%) ± SD, % of compound effect versus 8 μM of 22R-HC
[2] = GAL4-hLXRα luciferase, HEK293, dose-response 32-1 μM, mean of three-five independent experiments, read-out: LXRα EC50 (μM) ± SD
[3] = GAL4-hLXRβ luciferase, HEK293, dose-response 32-1 μM, mean of three-five independent experiments, read-out: LXRβ EC50 (μM) ± SD
[4] = % of compound effect versus 8 μM of 22R-HC

Compound | Emax (hLXRα) | Emax (hLXRβ; [1]) | EC50 (hLXRα; [2]) | EC50 (hLXRβ; [3]) | Emax (hLXRα; [4]) | PXR activation (hPXR) | inhibition of CCL2 expression (MCP-1/CCL2) | LXR isoform selectivity profile (hLXRα) | further results
C=C[C@@](O)(CC[C@@H](C)C1CCC2C3CC=C4C[C@@H](O)CC[C@]4(C)C3CC[C@@]21C)C(C)C (stereo partly drawn) [Compound 12, 24(S)-saringosterol, reference compound] | 43.4 ± 17.6% | 61 ± 17.4% |  |  |  |  |  |  | beta/alfa efficacy ratio (hLXRβ): 1.4
CC[C@@H](C(C)C)[C@@H]1O[C@H]1[C@@H](C)[C@H]1CC[C@H]2[C@@H]3CC=C4C[C@@H](O)CC[C@]4(C)[C@H]3CC[C@]12C [Compound 14, (22S,23S)-22,23-Epoxystigmast-5-ene-3β-ol] | 56.8 ± 4.6% | 36.3 ± 3% | 16.4 ± 0.62 µM | 12.7 ± 2.7 µM |  |  |  |  | 
CC(C)[C@@H](C)[C@H]1O[C@@H]1[C@@H](C)[C@H]1CC[C@H]2C3=CC=C4C[C@@H](O)CC[C@]4(C)[C@H]3CC[C@]12C [Compound 15, (22R,23R)-22,23-Epoxyergosta-5,7-diene-3β-ol] |  |  | 4.11 ± 0.31 µM | 7.2 ± 0.94 µM | 93.2 ± 5.8% | slight activation of PXR |  |  | Emax (hLXRβ; % of compound effect versus 8 μM of 22R-HC, read-out: LXRβ Efficacy (%) ± SD): 30.4 ± 10.6%
CC[C@@H](C(C)C)[C@H](O)C[C@@H](C)[C@H]1CC[C@H]2[C@@H]3CC=C4C[C@@H](O)CC[C@]4(C)[C@H]3CC[C@]12C [Compound 19, (23R)-3β-Stigmast-5-ene-3,23-diol] |  |  | 3.2 ± 0.54 µM | 2.7 ± 1.16 µM |  |  | same grade of potency of the positive control T0901317 |  | ABCA1 expression (ABCA1): strong induction of ABCA1 expression; SREBP-1c up-regulation (SREBP1c): poor activators of SREBP1c and SCD1; SCD1 expression (SCD1): poor activators of SREBP1c and SCD1; inhibition of TNFα expression (TNFα): the most active
CC(C)[C@@H](C)[C@@H](O)C[C@@H](C)[C@H]1CC[C@H]2C3=CC=C4C[C@@H](O)CC[C@]4(C)[C@H]3CC[C@]12C [Compound 21, (23S)-3β-Ergost-5,7-diene-3,23-diol] |  |  | 8.07 ± 1.6 µM |  | 159 ± 41.3% | slight activation of PXR | same grade of potency of the positive control T0901317 | selective LXRα agonists | inhibition of TNFα expression (TNFα): the most active
CC(C)[C@@H](C)C[C@H](O)[C@@H](C)[C@H]1CC[C@H]2C3=CC=C4C[C@@H](O)CC[C@]4(C)[C@H]3CC[C@]12C [Compound 22, (22S)-3β-Ergost-5,7-diene-3,22-diol] |  |  | 6.61 ± 1.69 µM | 1.96 ± 0.1 µM |  | slight activation of PXR | same grade of potency of the positive control T0901317 |  | 
CC(C)[C@@H](C)[C@H](O)C[C@@H](C)[C@H]1CC[C@H]2C3=CC=C4C[C@@H](O)CC[C@]4(C)[C@H]3CC[C@]12C [Compound 23, (23R)-3β-Ergost-5,7-diene-3,23-diol] |  |  | 15.8 ± 0.65 µM |  | 63.9 ± 26.9% |  |  |  | 
CC(C)[C@@H](C)C(=O)C[C@@H](C)[C@H]1CC[C@H]2C3=CC=C4C[C@@H](O)CC[C@]4(C)[C@H]3CC[C@]12C [Compound 27, 3β-Hydroxyergost-5,7-diene-23-one] |  |  | 5.58 ± 0.3 µM |  | 151 ± 4.8% |  |  | selective LXRα agonists | 
CC(C)[C@@H](C)CC(=O)[C@@H](C)[C@H]1CC[C@H]2C3=CC=C4C[C@@H](O)CC[C@]4(C)[C@H]3CC[C@]12C [Compound 28, 3β-Hydroxyergost-5,7-diene-22-one] |  |  | 8.51 ± 0.42 µM |  | 70.2 ± 3.9% |  |  | selective LXRα agonists | 
CC[C@](O)(CC[C@@H](C)[C@H]1CCC2C3CC=C4C[C@@H](O)CC[C@]4(C)C3CC[C@@]21C)C(C)C (stereo partly drawn) [Compound 29] | 11 ± 4.08% | 48.4 ± 5% |  |  |  |  |  |  | EC50 (hLXRα): 3.72 ± 0.5 µM; EC50 (hLXRβ): 3.21 ± 0.6 µM; beta/alfa efficacy ratio (hLXRβ): 4.4
